pIC50: −log10 of the molar value.

This test has as its system JAK1-dependent STAT6 phosphorylation downstream of IL-13 stimulation in TF-1 human erythroleukemia cells. In words: cells. Conditions: TF-1, read-out: IL-13-pSTAT6 IC50.
Consider `Cc1ccc(CC2CCN(C(=O)c3ccc(Nc4nc5c(C6=CCN(C(=O)CCC(F)(F)F)CC6)cccn5n4)cc3)C2)nc1` (centres unmarked) [Example 2-218, 4,4,4-trifluoro-1-[4-[2-[4-[3-[(5-methyl-2-pyridyl)methyl]pyrrolidine-1-carbonyl]anilino]-[1,2,4]triazolo[1,5-a]pyridin-8-yl]-3,6-dihydro-2H-pyridin-1-yl]butan-1-one], for which the pIC50 (usually −log10 of the IC50, conventionally taken in molar units) was 7.81.

For `O=C(NCCc1cccnc1)c1ccc(Nc2nc3c(C4=CCN(C(=O)CCC(F)(F)F)CC4)cccn3n2)cc1` [Example 2-220, N-[2-(3-pyridyl)ethyl]-4-[[8-[1-(4,4,4-trifluorobutanoyl)-3,6-dihydro-2H-pyridin-4-yl]-[1,2,4]triazolo[1,5-a]pyridin-2-yl]amino]benzamide], the pIC50 was 8.24.

With `CN1CCC(N(C)C(=O)c2ccc(Nc3nc4c(C5=CCN(C(=O)NCc6ccccc6)CC5)cccn4n3)cc2)CC1` [Example 2-222, N-benzyl-4-[2-[4-[methyl-(1-methyl-4-piperidyl)carbamoyl]anilino]-[1,2,4]triazolo[1,5-a]pyridin-8-yl]-3,6-dihydro-2H-pyridine-1-carboxamide], the pIC50 is 6.33.

Turning to `CC1CC1C(=O)N1CC=C(c2cccn3nc(Nc4ccc(C(=O)N(C)C5CCN(C)CC5)cc4)nc23)CC1` (centres unmarked) [Example 2-223, N-methyl-4-[[8-[1-(2-methylcyclopropanecarbonyl)-3,6-dihydro-2H-pyridin-4-yl]-[1,2,4]triazolo[1,5-a]pyridin-2-yl]amino]-N-(1-methyl-4-piperidyl)benzamide], the pIC50 was 7.76.

In the case of `COC(=O)N1CC=C(c2cccn3nc(Nc4ccc(C(=O)N(C)C5CCN(C)CC5)cc4)nc23)CC1` [Example 2-224, methyl 4-[2-[4-[methyl-(1-methyl-4-piperidyl)carbamoyl]anilino]-[1,2,4]triazolo[1,5-a]pyridin-8-yl]-3,6-dihydro-2H-pyridine-1-carboxylate], the pIC50 was 6.69.

Consider `CN1CCC(N(C)C(=O)c2ccc(Nc3nc4c(C5=CCN(C(=O)OCC(F)F)CC5)cccn4n3)cc2)CC1` [Example 2-225, 2,2-difluoroethyl 4-[2-[4-[methyl-(1-methyl-4-piperidyl)carbamoyl]anilino]-[1,2,4]triazolo[1,5-a]pyridin-8-yl]-3,6-dihydro-2H-pyridine-1-carboxylate], for which the pIC50 is 7.95.

With `CCOC(=O)N1CC=C(c2cccn3nc(Nc4ccc(C(=O)NCCNC)cc4)nc23)CC1` [Example 2-230, ethyl 4-[2-[4-[2-(methylamino)ethylcarbamoyl]anilino]-[1,2,4]triazolo[1,5-a]pyridin-8-yl]-3,6-dihydro-2H-pyridine-1-carboxylate], the negative-log IC50 (pIC50) is 6.80.

As to `CCOC(=O)N1CC=C(c2cccn3nc(Nc4ccc(C(=O)NC5CCNC5)cc4)nc23)CC1` (centres unmarked) [Example 2-231, ethyl 4-[2-[4-(pyrrolidin-3-ylcarbamoyl)anilino]-[1,2,4]triazolo[1,5-a]pyridin-8-yl]-3,6-dihydro-2H-pyridine-1-carboxylate], the pIC50 is 6.57.

Turning to `CCOC(=O)N1CC=C(c2cccn3nc(Nc4ccc(C(=O)N5CCCCC5c5cccnc5)cc4)nc23)CC1` (centres unmarked) [Example 2-232, ethyl 4-[2-[4-[2-(3-pyridyl)piperidine-1-carbonyl]anilino]-[1,2,4]triazolo[1,5-a]pyridin-8-yl]-3,6-dihydro-2H-pyridine-1-carboxylate], the pIC50 was 6.54.

Consider `CCOC(=O)N1CC=C(c2cccn3nc(Nc4ccc(C(=O)N5CCCCC5Cc5ccccn5)cc4)nc23)CC1` (centres unmarked) [Example 2-235, ethyl 4-[2-[4-[2-(2-pyridylmethyl)piperidine-1-carbonyl]anilino]-[1,2,4]triazolo[1,5-a]pyridin-8-yl]-3,6-dihydro-2H-pyridine-1-carboxylate], for which the pIC50 is 7.64.

For `CCOC(=O)N1CC=C(c2cccn3nc(Nc4ccc(C(=O)N5CCCC(O)(CN6CCCC6)CC5)cc4)nc23)CC1` (centres unmarked) [Example 2-241, ethyl 4-[2-[4-[4-hydroxy-4-(pyrrolidin-1-ylmethyl)azepane-1-carbonyl]anilino]-[1,2,4]triazolo[1,5-a]pyridin-8-yl]-3,6-dihydro-2H-pyridine-1-carboxylate], the pIC50 was 7.20.

For the compound `CCOC(=O)N1CC=C(c2cccn3nc(Nc4ccc(C(=O)NCc5ccc(C)nc5)cc4)nc23)CC1` [Example 2-245, ethyl 4-[2-[4-[(6-methyl-3-pyridyl)methylcarbamoyl]anilino]-[1,2,4]triazolo[1,5-a]pyridin-8-yl]-3,6-dihydro-2H-pyridine-1-carboxylate], the pIC50 was 7.91.

As to `CCOC(=O)N1CC=C(c2cccn3nc(Nc4ccc(C(=O)N[C@H]5CCCNC5)cc4)nc23)CC1` [Example 2-250, ethyl 4-[2-[4-[[(3S)-3-piperidyl]carbamoyl]anilino]-[1,2,4]triazolo[1,5-a]pyridin-8-yl]-3,6-dihydro-2H-pyridine-1-carboxylate], the pIC50 is 7.12.

With `O=C(CCC(F)(F)F)N1CC=C(c2cccn3nc(Nc4ccc(C(=O)N5CCC6(CCCNC6)C5)cc4)nc23)CC1` (centres unmarked) [Example 2-253, 1-[4-[2-[4-(2,9-diazaspiro[4.5]decane-2-carbonyl)anilino]-[1,2,4]triazolo[1,5-a]pyridin-8-yl]-3,6-dihydro-2H-pyridin-1-yl]-4,4,4-trifluoro-butan-1-one], the pIC50 is 6.82.

As to `O=C(CCC(F)(F)F)N1CC=C(c2cccn3nc(Nc4ccc(C(=O)N5CCOC6(CCNCC6)C5)cc4)nc23)CC1` [Example 2-254, 4,4,4-trifluoro-1-[4-[2-[4-(1-oxa-4,9-diazaspiro[5.5]undecane-4-carbonyl)anilino]-[1,2,4]triazolo[1,5-a]pyridin-8-yl]-3,6-dihydro-2H-pyridin-1-yl]butan-1-one], the pIC50 was 6.23.

For the compound `O=C(NC1CCNC1)c1ccc(Nc2nc3c(C4=CCN(C(=O)CCC(F)(F)F)CC4)cccn3n2)cc1` (centres unmarked) [Example 2-255, N-pyrrolidin-3-yl-4-[[8-[1-(4,4,4-trifluorobutanoyl)-3,6-dihydro-2H-pyridin-4-yl][1,2,4]triazolo[1,5 a]pyridin-2-yl]amino]benzamide], the pIC50 is 6.53.

As to `NC1CN(C(=O)c2ccc(Nc3nc4c(C5=CCN(C(=O)CCC(F)(F)F)CC5)cccn4n3)cc2)C1` [Example 2-256, 1-[4-[2-[4-(3-aminoazetidine-1-carbonyl)anilino]-[1,2,4]triazolo[1,5-a]pyridin-8-yl]-3,6-dihydro-2H-pyridin-1-yl]-4,4,4-trifluoro-butan-1-one], the pIC50 was 7.16.

With `O=C(CCC(F)(F)F)N1CC=C(c2cccn3nc(Nc4ccc(C(=O)N5CCCC56CCCNC6)cc4)nc23)CC1` (centres unmarked) [Example 2-257, 1-[4-[2-[4-(1,9-diazaspiro[4.5]decane-1-carbonyl)anilino]-[1,2,4]triazolo[1,5-a]pyridin-8-yl]-3,6-dihydro-2H-pyridin-1-yl]-4,4,4-trifluoro-butan-1-one], the pIC50 was 7.22.

In the case of `O=C(CCC(F)(F)F)N1CC=C(c2cccn3nc(Nc4ccc(C(=O)N5CCCC56CCNCC6)cc4)nc23)CC1` [Example 2-258, 1-[4-[2-[4-(1,8-diazaspiro[4.5]decane-1-carbonyl)anilino]-[1,2,4]triazolo[1,5-a]pyridin-8-yl]-3,6-dihydro-2H-pyridin-1-yl]-4,4,4-trifluoro-butan-1-one], the pIC50 was 6.62.

Turning to `CN1CCOC2(C1)CN(C(=O)c1ccc(Nc3nc4c(C5=CCN(C(=O)CCC(F)(F)F)CC5)cccn4n3)cc1)C2` [Example 2-259, 4,4,4-trifluoro-1-[4-[2-[4-(8-methyl-5-oxa-2,8-diazaspiro[3.5]nonane-2-carbonyl)anilino]-[1,2,4]triazolo[1,5-a]pyridin-8-yl]-3,6-dihydro-2H-pyridin-1-yl]butan-1-one], the negative-log IC50 (pIC50) is 8.24.

For `O=C(CCC(F)(F)F)N1CC=C(c2cccn3nc(Nc4ccc(C(=O)N5CCN(C6CCC6)CC5)cc4)nc23)CC1` [Example 2-260, 1-[4-[2-[4-(4-cyclobutylpiperazine-1-carbonyl)anilino]-[1,2,4]triazolo[1,5-a]pyridin-8-yl]-3,6-dihydro-2H-pyridin-1-yl]-4,4,4-trifluoro-butan-1-one], the negative logarithm of the IC50 (pIC50) was 8.28.

In the case of `CN(C)C(=O)C1(c2ccncc2)CCCN1C(=O)c1ccc(Nc2nc3c(C4=CCN(C(=O)CCC(F)(F)F)CC4)cccn3n2)cc1` (centres unmarked) [Example 2-261, N,N-dimethyl-2-(4-pyridyl)-1-[4-[[8-[1-(4,4,4-trifluorobutanoyl)-3,6-dihydro-2H-pyridin-4-yl]-[1,2,4]triazolo[1,5-a]pyridin-2-yl]amino]benzoyl] pyrrolidine-2-carboxamide], the pIC50 is 7.33.

Turning to `CN1CCN(C(=O)C2COCCN2C(=O)c2ccc(Nc3nc4c(C5=CCN(C(=O)CCC(F)(F)F)CC5)cccn4n3)cc2)CC1` (centres unmarked) [Example 2-262, 4,4,4-trifluoro-1-[4-[2-[4-[3-(4-methylpiperazine-1-carbonyl)morpholine-4-carbonyl]anilino]-[1,2,4]triazolo[1,5-a]pyridin-8-yl]-3,6-dihydro-2H-pyridin-1-yl]butane-1-one], the pIC50 was 7.01.

As to `CC1CC(C(=O)N2CC=C(c3cccn4nc(Nc5ccc(C(=O)N(C)C6CCN(C)CC6)cc5)nc34)CC2)C1` (centres unmarked) [Example 2-263, N-methyl-4-[[8-[1-(3-methylcyclobutanecarbonyl)-3,6-dihydro-2H-pyridin-4-yl]-[1,2,4]triazolo[1,5-a]pyridin-2-yl]amino]-N-(1-methyl-4-piperidyl)benzamide], the pIC50 was 7.53.

Turning to `CN1CCC(OC(=O)c2ccc(Nc3nc4c(C5=CCN(C(=O)CCC(F)(F)F)CC5)cccn4n3)cc2)CC1` [Example 2-264, (1-methyl-4-piperidyl) 4-[[8-[1-(4,4,4-trifluorobutanoyl)-3,6-dihydro-2H-pyridin-4-yl]-[1,2,4]triazolo[1,5-a]pyridin-2-yl]amino]benzoate], the pIC50 was 7.93.

For `O=C(CCC(F)(F)F)N1CC=C(c2cccn3nc(Nc4ccc(C(=O)N5CCCCC5Cc5ccccn5)cc4)nc23)CC1` (centres unmarked) [Example 2-265, 4,4,4-trifluoro-1-[4-[2-[4-[2-(2-pyridylmethyl)piperidine-1-carbonyl]anilino]-[1,2,4]triazolo[1,5-a]pyridin-8-yl]-3,6-dihydro-2H-pyridin-1-yl]butan-1-one], the pIC50 is 8.38.

The values above are taken from patent publication US9873709B2 (priority 2013, dated 2018).
